In article PMC3947174 (Structure (London, England : 1993), 2013):
Ends that are not written are not given here. Ahx = NCCCCCC(=O)O

Experiments:
N1P1 (NHERF1 PDZ1) = molecular target: T1, N1P1 (NHERF1 PDZ1) (Homo sapiens, UniProt O14745); test: FP displacement binding to NHERF1 PDZ1
T1 sequence (O14745 14-94 limits assumed): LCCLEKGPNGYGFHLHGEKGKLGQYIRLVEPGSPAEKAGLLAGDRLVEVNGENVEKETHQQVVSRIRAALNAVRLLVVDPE

N2P1 (NHERF2 PDZ1) = N2P1 (NHERF2 PDZ1) (Homo sapiens, UniProt Q15599); test: FP displacement binding to NHERF2 PDZ1
N2P2 (NHERF2 PDZ2) = N2P2 (NHERF2 PDZ2) (Homo sapiens, UniProt Q15599); test: FP displacement binding to NHERF2 PDZ2
CALP (CAL PDZ domain) [1] = molecular target: T2, CALP (CAL PDZ domain) (Homo sapiens, UniProt Q9HD26); test: FP competition; type: binding; conditions: reporter F*-iCAL36, PDZ ~[…] Kd, triplicate experiments
N1P2 (NHERF1 PDZ2) = molecular target: T3, N1P2 (NHERF1 PDZ2) (Homo sapiens, UniProt O14745); test: FP displacement binding to NHERF1 PDZ2
T3 sequence (O14745 154-234 limits assumed): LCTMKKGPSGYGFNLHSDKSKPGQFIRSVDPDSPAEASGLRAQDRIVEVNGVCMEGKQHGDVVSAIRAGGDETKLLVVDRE

iCAL36 = test: fluorescence polarization competition; conditions: cited from earlier work
CFTR (Homo sapiens) = test: fluorescence polarization competition; conditions: cited from earlier work
iCAL36L = test: fluorescence polarization competition; conditions: cited from earlier work
CALP (CAL PDZ domain) [2] = molecular target: T2, CALP (CAL PDZ domain); conditions: K*-designed hexamer; ref Roberts et al., 2012; cited from earlier work
iCAL36TRL = molecular target: T4, iCAL36TRL; test: fluorescence polarization competition
T4 chain: ANSRWPTTRL

iCAL36QDTRL = molecular target: T5, iCAL36QDTRL; test: fluorescence polarization competition
T5 chain: ANSRWQDTRL

iCAL36Q-4 = molecular target: T6, iCAL36Q-4; test: fluorescence polarization competition
T6 chain: ANSRWQTSII

iCAL36VQD-3 = molecular target: T7, iCAL36VQD-3; test: fluorescence polarization competition
T7 chain: ANSRVQDSII

F*-CFTR6 = molecular target: T8, F*-CFTR6 (Homo sapiens); test: fluorescence polarization
T8 chain: {Fluorescein-Ahx}-VQDTRL

**Q.** Which Ki (N1P1 (NHERF1 PDZ1)) does the source give for CC(C)C[C@H](NC(=O)[C@H](CCCNC(=N)N)NC(=O)[C@@H](NC(=O)[C@@H](NC(=O)[C@H](CCC(N)=O)NC(=O)[C@@H](NC(=O)[C@H](CCC(=O)O)NC(=O)[C@H](CCC(=O)O)NC(=O)[C@H](CCC(=O)O)NC(=O)[C@@H](N)[C@@H](C)O)C(C)C)[C@@H](C)O)[C@@H](C)O)C(=O)O [CFTRT^-3] here?
**A.** The Ki was 0.76 ± 0.51 µM.

**Q.** And the Ki (N2P1 (NHERF2 PDZ1))?
**A.** Its Ki is 1.3 ± 0.4 µM.

**Q.** What about the Ki (N2P2 (NHERF2 PDZ2)) of the same molecule?
**A.** The Ki was 0.45 ± 0.25 µM.

**Q.** And the Ki (CALP (CAL PDZ domain) [1])?
**A.** The Ki was 18 ± 5.5 µM.

**Q.** What about the Ki (N1P2 (NHERF1 PDZ2)) of the same molecule?
**A.** Its Ki is 4.6 ± 1.6 µM.

**Q.** Which Ki (N1P1 (NHERF1 PDZ1)) does the source give for CC[C@H](C)[C@H](NC(=O)[C@@H](NC(=O)[C@H](CO)NC(=O)[C@@H](NC(=O)[C@H](CCC(N)=O)NC(=O)[C@H](Cc1c[nH]c2ccccc12)NC(=O)[C@H](CCCNC(=N)N)NC(=O)[C@H](CO)NC(=O)[C@H](CC(N)=O)NC(=O)[C@H](C)N)[C@@H](C)O)[C@@H](C)CC)C(=O)O [iCAL36Q^-4] here?
**A.** The Ki was 280 ± 100 µM.

**Q.** What about the Ki (N2P1 (NHERF2 PDZ1)) of the same molecule?
**A.** The Ki was 300 ± 100 µM.

**Q.** What about the Ki (N1P2 (NHERF1 PDZ2)) of the same molecule?
**A.** Its Ki is greater than 1000 µM.

**Q.** For ANSRVQDSII [iCAL36VQD^-3], which Ki (N1P1 (NHERF1 PDZ1)) is on record?
**A.** Its Ki is greater than 1000 µM.

**Q.** What about the Ki (N2P1 (NHERF2 PDZ1)) of the same molecule?
**A.** The Ki was greater than 1000 µM.

**Q.** And the Ki (CALP (CAL PDZ domain) [1])?
**A.** Its Ki is greater than 1000 µM.

**Q.** And the Ki (N1P2 (NHERF1 PDZ2))?
**A.** The Ki was greater than 1000 µM.

**Q.** Which results are given for ANSRVQDTRL [iCAL36VQDTRL]?
**A.** Ki (N1P1 (NHERF1 PDZ1)): 2.5 ± 0.3 µM; Ki (N2P1 (NHERF2 PDZ1)): 3.8 ± 1.4 µM; Ki (N2P2 (NHERF2 PDZ2)): 0.94 ± 0.42 µM; Ki (N1P2 (NHERF1 PDZ2)): 6.5 ± 2.3 µM

**Q.** Which results are given for ANSRWPTTRL [iCAL36TRL]?
**A.** Ki (N1P1 (NHERF1 PDZ1)): 8 ± 1.4 µM; Ki (N2P1 (NHERF2 PDZ1)): 8.7 ± 3.1 µM; Ki (N2P2 (NHERF2 PDZ2)): 16.5 ± 3.9 µM

**Q.** What does the source list for ANSRWQDTRL [iCAL36QDTRL]?
**A.** Ki (N1P1 (NHERF1 PDZ1)): 1.5 ± 0.2 µM; Ki (N2P1 (NHERF2 PDZ1)): 3.1 ± 1.4 µM; Ki (N2P2 (NHERF2 PDZ2)): 1.1 ± 0.6 µM; Ki (N1P2 (NHERF1 PDZ2)): 6.7 ± 2.4 µM

**Q.** Which Ki (iCAL36) does the source give for N1P1 PDZ1 (from UniProt O14745) here?
**A.** Its Ki is greater than 1000 µM.

**Q.** Which Ki (iCAL36) does the source give for N1P2 PDZ2 (from UniProt O14745) here?
**A.** The Ki was greater than 1000 µM.

**Q.** What about the Ki (CFTR (Homo sapiens)) of the same molecule?
**A.** The Ki was 1.8 µM.

**Q.** What about the Ki (iCAL36L) of the same molecule?
**A.** The Ki was greater than 1000 µM.

**Q.** With N2P1 PDZ1 (from UniProt Q15599) as the molecule, how does the Ki (iCAL36) read?
**A.** The Ki was greater than 1000 µM.

**Q.** Which Ki (iCAL36) does the source give for N2P2 PDZ2 (from UniProt Q15599) here?
**A.** Its Ki is greater than 1000 µM.

**Q.** With WQVTRV [kCAL01] as the molecule, how does the “CALP affinity in words” value (CALP (CAL PDZ domain) [2]) read?
**A.** Its value is “highest affinity observed to date for a hexameric sequence”.

B1: N2P2 PDZ2 (protein)
chain: LRPRLCHLRKGPQGYGFNLHSDKSRPGQYIRSVDPGSPAARSGLRAQDRLIEVNGQNVEGLRHAEVVASIKAREDEARLLVVDPETD
**Q.** What does the source list for B1?
**A.** Ki (iCAL36TRL): 16.5 µM; Ki (iCAL36QDTRL): 1.1 µM; Ki (iCAL36Q-4): 450 µM

B2: N1P2 PDZ2 (protein)
chain: RPRLCTMKKGPSGYGFNLHSDKSKPGQFIRSVDPDSPAEASGLRAQDRIVEVNGVCMEGKQHGDVVSAIRAGGDETKLLVVDRETDE
**Q.** With B2 as the molecule, how does the Ki (iCAL36TRL) read?
**A.** The Ki was 110 µM.

**Q.** And the Ki (iCAL36Q-4)?
**A.** Its Ki is greater than 1000 µM.

**Q.** What about the Ki (iCAL36VQD-3) of the same molecule?
**A.** Its Ki is greater than 1000 µM.

B3: N2P1 PDZ1 (protein)
chain: RPRLCRLVRGEQGYGFHLHGEKGRRGQFIRRVEPGSPAEAAALRAGDRLVEVNGVNVEGETHHQVVQRIKAVEGQTRLLVVDQETD
**Q.** For B3, which Ki (iCAL36TRL) is on record?
**A.** Its Ki is 8.7 µM.

**Q.** What about the Ki (iCAL36QDTRL) of the same molecule?
**A.** Its Ki is 3.1 µM.

**Q.** What about the Ki (iCAL36Q-4) of the same molecule?
**A.** The Ki was 300 µM.

**Q.** And the Ki (iCAL36VQD-3)?
**A.** The Ki was greater than 1000 µM.

B4: N1P1 PDZ1 (protein)
chain: LPRLCCLEKGPNGYGFHLHGEKGKLGQYIRLVEPGSPAEKAGLLAGDRLVEVNGENVEKETHQQVVSRIRAALNAVRLLVVDPETDE
**Q.** Which Ki (iCAL36TRL) does the source give for B4 here?
**A.** The Ki was 8 µM.

**Q.** And the Ki (iCAL36Q-4)?
**A.** The Ki was 280 µM.

**Q.** What about the Ki (iCAL36VQD-3) of the same molecule?
**A.** Its Ki is greater than 1000 µM.

**Q.** What about the Kd (F*-CFTR6) of the same molecule?
**A.** The Kd was 0.37 µM.
